In patent US20060246163A1, “TREATMENT OF INSULIN RESISTANCE SYNDROME” (TG BIOTECH, priority 2005, published 2006):

Key:
Type in all cases: cell-based
AMPK = AMPK phosphorylation (threonine 172) in L6 myotube cells, immunoblot; conditions: 1 mM, high glucose
Procedure: L6 myotube cells were treated with 60 μg/mL of GP and incubated for the period of time indicated. Cells were lysed in lysis buffer and cytosolic proteins were resolved by SDS-PAGE, protein bands were transferred onto a nitrocellulose membrane, and phospho-AMPK was analyzed with specific antibodies. 1) control cells with no treatment; 2) cells treated with GP for 30 min; 3) cells treated with GP for 1 h; 3) cells with treated with GP for 2 hs.
(§2) The kinase activities were evaluated with specific antibodies. 1) control; 2) GP 30 μg/mL; 3) GP 60 μg/mL; 4) AICAR 1 mM.
We treated GP on L6 myotube cells to determine whether the treatment activates AMPK activity. Activation of AMPK was estimated by the increase in the phosphorylation on the threonine^172 residue of AMPK using specific antibodies. […] Cells were pretreated with high glucose (27.5 mM) to induce insulin resistance and to repress AMPK activation (Itani, 2003).
(§3) L6 cells were differentiated into mature muscle cells in a low serum condition (2%, v/v). AICAR was used as an internal positive control. Once drug treatments were completed, cells were harvested, subjected to be lysated, and equal amount of proteins from each treatment was loaded on gels for analyzing AMPK and p38 MAPK activity levels (FIG. 7). Total AMPK protein was also immunoblotted to make sure that equal amount of protein was loaded on the gels.

p38 MAPK = p38 MAPK activation in L6 cells; conditions: GP 30, 60 μg/mL; AICAR 1 mM
Procedure: as §2, §3
We investigated whether GP is able to activate p38 MAPK in L6 cells.

ACC = ACC Ser79 phosphorylation in L6 myotube cells; conditions: GP 30, 60, 100 μg/mL; AICAR 1 mM; insulin 100 nM
Procedure: (§1) 1) control; 2) GP 30 μg/mL; 3) GP 60 μg/mL; 4) GP 100 μg/mL; 5) AICAR 1 mM; 6) insulin 100 nM.
L6 myotube cells were treated with GP and AICAR.

AKT = AKT phosphorylation/activity in L6 cells; conditions: GP 30, 60, 100 μg/mL; AICAR 1 mM; insulin 100 nM
Procedure: as §1
AKT (also called protein kinase B, PKB) phosphorylation is catalyzed by PI3K in insulin signal pathway. Whether GP treatment on the muscle cells affects AKT activity was tested.

IKKβ = IKKβ phosphorylation/activity in L6 myotube cells in the presence of tunicamycin; conditions: GP 30, 60 μg/mL, AICAR 1 mM, insulin 100 nM
Procedure: The cytosolic fraction was subjected on SDS-PAGE and blotted on nitrocellulose membrane. The membrane was incubated with anti-phospho-IKKβ (S^177/181), anti-phospho IRS1 (S^307), and anti-phospho SAPK/JNK (T^183) antibodies. 1) control cells with no treatment; 2) L6 cells treated with tunicamycin; 3) cells treated with 30 μg/mL GP in the presence of tunicamycin; 4) cells treated with 60 μg/mL GP in the presence of tunicamycin; 5) cells treated with 1 mM AICAR in the presence of tunicamycin; 6) cells incubated with 100 nM insulin in the presence of tunicamycin; 7) cells incubated with 100 nM insulin in the absence of tunicamycin.
The effect of GP on the phosphorylation of IKKβ in L6 myotube cells in the presence of tunicamycin was evaluated. The cytosolic fraction was subjected to SDS-PAGE and blotted on nitrocellulose membrane. The cytosolic fraction was subjected to SDS-PAGE and blotted on nitrocellulose membrane. The membrane was incubated with anti-phospho-IKKβ (S^177/181), anti-phospho IRS1 (S^307), and anti-phospho SAPK/JNK (T^183) antibodies.

JNK = JNK activity in L6 myotube cells, phospho JNK immunoblot; conditions: 2 hs; GP 30, 60 μg/mL; AICAR 1 mM; insulin 100 nM
Procedure: L6 myotube cells were treated with GP for 2 hs. Cytosolic fraction was immunoblotted against phospho JNK antibodies. 1) control cells with no treatment; 2) GP 30 μg/ mL; 3) GP 60 μg/ mL; 4) AICAR 1 mM; 5) insulin 100 nM. We also investigated effects of GP treatment on JNK activity in L6 myotube cells.

L6 myotube cells = assay: 2-deoxyglucose uptake in L6 myotube cells; conditions: high glucose; GP 60 μg/mL 2 hs, AICAR 1 mM 1 h, insulin 100 nM 20 min
Procedure: Examples 1-5 indicate that GP would increase glucose uptake regardless of the presence of insulin. To measure the glucose uptake in vitro, we performed 2-deoxyglucose uptake experiment. Since 2-deoxyglucose is not metabolized inside cells, radiolabeled 2-deoxyglucose was used for measuring glucose uptake experiment. Whether GP increases glucose uptake in L6 myotube cells was investigated. Prior to adding the materials, the cells were incubated in the presence of high glucose, since high glucose is known to obstruct glucose uptake in muscle […] (60 μg/mL), AICAR (1 mM) and insulin (100 nM) were incubated for 2 hs, 1 h and 20 min, respectively. Immediately after washing in Hepes buffered saline (HBS), the cells were incubated with 2-deoxyglucose (10 μM) in HBS for 10 min. Extensive washing was preceded before measuring radioactivity in scintillation counter. The uptake unit was estimated by the total counts of incubation.

Row | Compound | Phosphorylation level of AMPK (AMPK) | p38 MAPK activation (p38 MAPK) | Phosphorylation of Ser79 of ACC (ACC) | AKT activity (phosphorylation) (AKT) | Serine phosphorylation / activity of IKKβ (IKKβ) | JNK activity (JNK) | Increase of 2-deoxyglucose uptake, on average (L6 myotube cells) [%]
1 | NC(=O)c1ncn([C@@H]2O[C@H](COP(=O)(O)O)[C@@H](O)[C@H]2O)c1N [AICAR, 5′-phosphoribosyl-5-aminoimidazole-4-carboxamide] | comparable to that of 60 μg/mL of GP | exhibited p38 activation | increased the phosphorylation of ACC but slightly less than that observed with 30 μg/mL of GP | Neither GP nor AICAR appeared to affect AKT activity | slightly reduced | not affected | 42
2 | insulin: hormone used as positive marker/control for GLUT4 translocation and AKT activation |  |  | did not affect the phosphorylation | activated AKT activity considerably | slightly reduced | not affected | 40
